Results taken from US7666611B2, “Lysophosphatidic acid receptor” (Japan Science and Technology Agency, priority 2003, dated 2010).
“Also recorded” adds a separate entry of the source.

How the values were obtained:
[1] = test system: ATP receptors endogenously expressed in CHO cells; test: ATP positive control, intracellular calcium change in CHO clones; format: cell-based; details: ATP 1 μM, 10 μM and 100 μM
Description: Over 200 lipids (Lipid Library; BIOMOL) and nucleotides were screened using CHO clones of respective receptors by monitoring changes in intracellular calcium concentrations. As positive controls for the screenings, ATP with concentrations of 1 μM, 10 μM and 100 μM were used.
CHO clones of four individual receptors such as GPR34, p2y5, p2y9 and p2y10 were seeded respectively in three 96-well plates at a density of 4×10^4 cells/well. On the following day, cells were loaded with 4 μM of Fluo-3 (calcium indicator) and incubated at 37° C. for 1 hour for incorporation of Fluo-3. Cells were then reacted with individual lipids (1 to 10 μM) contained in the Lipid Library of BIOMOL comprising over 200 kinds of lipid molecules and 17 nucleotides (1 to 100 μM) such as ATP, then time course kinetics of intracellular calcium mobilization was monitored with FLEXstation of Molecular Devices.
This enabled to confirm the relevance of the experiment.

[2] = target: T1, p2y9 (Homo sapiens, UniProt Q99677); test: Intracellular calcium increase in four CHO clones stably expressing p2y9 (Fura-2); format: cell-based; details: p2y9 clones vs negative control, FIG. 15
T1 construct: expressed in transfected cells
T1 sequence (Q99677 whole entry): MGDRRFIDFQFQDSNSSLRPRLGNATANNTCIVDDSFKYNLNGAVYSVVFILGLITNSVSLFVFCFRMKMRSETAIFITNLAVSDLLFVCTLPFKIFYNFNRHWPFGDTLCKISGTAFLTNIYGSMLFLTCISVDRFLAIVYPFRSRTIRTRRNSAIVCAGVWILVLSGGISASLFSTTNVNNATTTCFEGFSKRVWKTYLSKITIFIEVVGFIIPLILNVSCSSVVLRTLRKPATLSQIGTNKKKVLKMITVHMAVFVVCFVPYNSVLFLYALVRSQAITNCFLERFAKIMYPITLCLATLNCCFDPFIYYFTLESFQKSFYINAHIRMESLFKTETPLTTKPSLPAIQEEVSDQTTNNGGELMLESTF
Description: Then the investigation with respect to CHO clone has been carried out. Experiment of calcium incorporation was conducted in four independent CHO clones, #01, #09, #15 and #20, stably expressing p2y9. […] As a negative control, CHO cells which acquired neomycin resistance by transfected only with pCXN2.1 vector were used.
Four types of CHO clones, #01, #09, #15 and #20, stably expressing p2y9 were incubated for 24 hours in the medium of Ham's F-12 supplemented with 0.1% BSA in replacement of Ham's F-12 supplemented with 10% fetal bovine serum. The cells were then suspended in HEPES-Tyrode's buffer (140 mM NaCl, 2.7 mM KCl, 1 mM CaCl2, 12 mM NaHCO3, 5.6 mM D-glucose, 0.49 mM MgCl2, 0.37 mM NaH2PO4, and 25 mM HEPES-NaOH (pH 7.4)) containing 3 μM Fura-2 (calcium indicator) and 0.01% Cremophor EL. Cells were incubated at 37° C. for 1 hour for incorporation of Fura-2. Cells were then resuspended in HEPES-Tyrode's buffer in order to achieve a cell density of 1×10^6 cells/ml. The changes in intracellular concentrations with addition of various concentrations of LPAs were monitored by using CAF-100 spectrofluorometer (Jasco, Tokyo, Japan). As a negative control, CHO cells which acquired neomycin resistance by transfected only with pCXN2.1 vector were used.

## Nc1ncnc2c1ncn2[C@@H]1O[C@H](COP(=O)(O)OP(=O)(O)OP(=O)(O)O)[C@@H](O)[C@H]1O [ATP]
[1]
  change in intracellular calcium concentration: remarkable change in intracellular calcium concentration beyond the measurable range; also recorded: changes in calcium concentration beyond the measurable range
[2]; ATP 10 μM
  increase in intracellular calcium concentration: no significant difference; also recorded: no significant changes

## platelet activating factor [PAF]
[2]; PAF 1 μM
  increase in intracellular calcium concentration: no significant difference; also recorded: no significant changes

## thrombin
[2]; thrombin 0.1 NIH units/ml
  increase in intracellular calcium concentration: no significant difference; also recorded: no significant changes
